Patent US6780871B2, “Methods and compositions for treating addiction disorders” (Albany Medical College, priority 2001, dated 2004)

What was measured:
Format in all cases: cell-based
α3β4 nACh receptors [1] = target: T1, α3β4 nACh receptors (Rattus norvegicus, UniProt P09483+P12390); test: whole-cell patch-clamp of transfected HEK293 cells, neuronal nACh receptors, 300 μM ACh
T1 construct: expressed in transfected cells; host or cells: HEK293 (ATCC CRL1573), transient transfection
Experimental: (§1) Human embryonic kidney 293 (HEK293) fibroblasts (ATCC CRL1573) were cultured in minimal essential medium supplemented with 10% fetal bovine serum and 2 mM glutamine (Life Technologies, Rockville, Md.). Cells were plated on poly-D-lysine-coated 35 mm nunc dishes, transfected by the LipofectaminePLUS method (Life Technologies), and examined functionally between 18-48 h post transfection. The following receptor subunit cDNAs were used: nAChR-α3 (nicotinic acetylcholine receptor-α3; accession no. L31621), nAChR-α4 (accession no. L31620), nAChR-β2 (accession no. L31622), nAChR-β4 (accession no. U42976), 5-HT3R-A (5-HT3A receptor; accession no. M74425), NR1 (N-methyl-D-aspartate receptor 1; accession no. X63255), NR2A (accession no. X91561), and NR2B (accession no. M91562). The nAchR and NR clones were rat; the 5-HT3R-A clone was mouse. Co-transfection of enhanced green fluorescent protein (“EGFP”) (10% of total cDNA) provided a marker to identify transfected cells. Transfected cells were selected for EGFP expression and examined by voltage-clamp recording in the whole-cell configuration using an Axopatch 200B patch-clamp amplifier (Axon Instruments, Foster City, Calif.). Thin-walled borosilicate glass microelectrodes (TW150F, World Precision Instruments, Sarasota, Fla.) had resistances of 3-5 MΩ when filled with an internal solution containing (in mM): 135 CsCl, 10 CsF, 10 HEPES (N-[2-hydroxyethyl]piperazine-N′-[2-ethanesulfonic acid]), 5 EGTA (ethylene glycol-bis[β-aminoethyl ether]-N,N,N′,N′-tetraacetic acid), 1 MgCl2, 0.5 CaCl2, pH 7.2. Whole-cell capacitance and series resistance were recorded and adequately compensated using the available circuitry of the amplifier. Current responses were filtered at 1 kHz with an 8-pole Bessel filter (Cygnus Technologies, Delaware Water Gap, Pa.), digitized at 3 kHz, and stored on a Macintosh PowerPC-G3 computer using an ITC-16 interface (Instrutech, Great Neck, N.Y.) under control of the data acquisition and analysis program Synapse (Synergy Research, Gaithersburg, Md.). Cells were continuously superfused with extracellular solution containing (in mM): 150 NaCl, 3 KCl, 5 HEPES, 1 MgCl2, 1.8 CaCl2, 10 glucose, and 0.1 mg/ml phenol red, pH 7.3 (MgCl2 was omitted from all solutions used for the study of NMDA receptors). […] Control, agonist, and drug solutions were applied to individual cells by rapid perfusion. Solutions were driven by a syringe pump through a flowpipe having 4 inputs that converge at a single common output of approximately 100 μm diameter. Rapid switching between inputs was achieved using a set of upstream solenoid valves (Lee Co., Westbrook, Conn.) under computer control; the solution exchange rate was ˜5 ms as measured from liquid junction currents.
(§2) Transfected HEK293 cells expressing various receptor subunit cDNAs were examined by whole-cell patch-clamp recording with fast perfusion of agonist and drug solutions. […] Transfected HEK293 cells expressing α3β4 nACh receptors were voltage-clamped to −70 mV and stimulated with 1 mM ACh at 30 s intervals. […] In FIG. 1A, open bars depict the timing of ACh application; filled bars depict the timing of co-application of 20 μM IBO or 20 μM 18MC; and inhibition was measured relative to control at the end of the drug application (indicated by arrows). […] The data presented in FIG. 1B are mean±SEM for 3-14 cells per point, and curve fits are given for the logistic equation: I=Imax/(1+([drug]/IC50)). […] In this case, transfected HEK293 cells expressing α3β4 nACh receptors were voltage-clamped to −70 mV and stimulated with 300 μM ACh at 30 s intervals.

nACh receptors = target: T2, nACh receptors (Rattus norvegicus, UniProt P09483+P12390); test: as above; conditions: 300 μM ACh, estimated from 5 and 20 μM data; read-out: IC50 suggested by the inhibition data
T2 construct: expressed in transfected cells; host or cells: HEK293 (ATCC CRL1573), transient transfection
Experimental: as §1, §2

NR1/2B receptors = target: T3, NR1/2B receptors (Rattus norvegicus, UniProt P35439+Q00960); test: whole-cell patch-clamp of transfected HEK293 cells, NR1/2B, 100 μM glutamate plus 10 μM glycine
T3 construct: expressed in transfected cells; host or cells: HEK293 (ATCC CRL1573), transient transfection
Experimental: as §1
(§3) To study these, transfected HEK293 cells expressing NR1/2A or NR1/2B receptors were voltage-clamped to −70 mV and stimulated with 100 μM glutamate plus 10 μM glycine at 30 s intervals. […] In FIGS. 3A and 3B, open bars depict the timing of agonist application, filled bars depict the timing of co-application of 20 μM IBO or 20 μM 18MC, and inhibition was measured relative to control at the end of the drug application (indicated by arrows).

NR1/2A receptors = target: T4, NR1/2A receptors (Rattus norvegicus, UniProt P35439+Q00959); test: whole-cell patch-clamp of transfected HEK293 cells, NR1/2A, 100 μM glutamate plus 10 μM glycine
T4 construct: expressed in transfected cells; host or cells: HEK293 (ATCC CRL1573), transient transfection
Experimental: as §1, §3

5-HT3A receptors = target: T5, 5-HT3A receptors (Mus musculus, UniProt P23979); test: whole-cell patch-clamp of transfected HEK293 cells, 5-HT3A, 100 μM serotonin
T5 construct: expressed in transfected cells; host or cells: HEK293 (ATCC CRL1573), transient transfection
T5 sequence (P23979 24-489): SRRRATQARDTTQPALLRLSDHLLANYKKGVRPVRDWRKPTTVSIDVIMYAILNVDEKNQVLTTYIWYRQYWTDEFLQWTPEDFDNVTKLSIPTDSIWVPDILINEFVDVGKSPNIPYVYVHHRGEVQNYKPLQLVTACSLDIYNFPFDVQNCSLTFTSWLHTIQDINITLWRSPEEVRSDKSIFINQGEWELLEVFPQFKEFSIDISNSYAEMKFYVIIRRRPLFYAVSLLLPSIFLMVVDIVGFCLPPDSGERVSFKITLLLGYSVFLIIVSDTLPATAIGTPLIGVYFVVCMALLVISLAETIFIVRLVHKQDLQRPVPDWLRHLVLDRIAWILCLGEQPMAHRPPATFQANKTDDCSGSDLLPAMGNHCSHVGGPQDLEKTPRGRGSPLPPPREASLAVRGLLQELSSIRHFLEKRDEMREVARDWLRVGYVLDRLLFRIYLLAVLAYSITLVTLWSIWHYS
Experimental: as §1
Transfected HEK293 cells expressing 5-HT3A receptors were voltage-clamped to −70 mV and stimulated with 100 μM serotonin at 30 s intervals. […] This is shown in FIG. 4, where open bars depict the timing of agonist application, filled bars depict the timing of co-application of 20 μM IBO or 20 μM 18MC, and inhibition was measured relative to control at the end of the drug application (indicated by arrows).

α3β4 nACh receptors [2] = target: T6, α3β4 nACh receptors (Rattus norvegicus, UniProt P04757+P12392); test: whole-cell patch-clamp of transfected HEK293 cells, ganglionic α3β4 nACh receptors, 1 mM ACh
T6 construct: expressed in transfected cells; host or cells: HEK293 (ATCC CRL1573), transient transfection
Experimental: Human embryonic kidney 293 (HEK293) fibroblasts (ATCC CRL1573) were cultured in minimal essential medium supplemented with 10% fetal bovine serum and 2 mM glutamine (Life Technologies, Rockville, Md.). Cells were plated on poly-D-lysine-coated 35 mm nunc dishes, transfected by the LipofectaminePLUS method (Life Technologies), and examined functionally between 18-48 h post transfection. The following receptor subunit cDNAs were used: nAChR-α3 (nicotinic acetylcholine receptor-α3; accession no. L31621), nAChR-α4 (accession no. L31620), nAChR-β2 (accession no. L31622), nAChR-β4 (accession no. U42976), 5-HT3R-A (5-HT3A receptor; accession no. M74425), NR1 (N-methyl-D-aspartate receptor 1; accession no. X63255), NR2A (accession no. X91561), and NR2B (accession no. M91562). The nAchR and NR clones were rat; the 5-HT3R-A clone was mouse. Co-transfection of enhanced green fluorescent protein (“EGFP”) (10% of total cDNA) provided a marker to identify transfected cells. Transfected cells were selected for EGFP expression and examined by voltage-clamp recording in the whole-cell configuration using an Axopatch 200B patch-clamp amplifier (Axon Instruments, Foster City, Calif.). Thin-walled borosilicate glass microelectrodes (TW150F, World Precision Instruments, Sarasota, Fla.) had resistances of 3-5 MΩ when filled with an internal solution containing (in mM): 135 CsCl, 10 CsF, 10 HEPES (N-[2-hydroxyethyl]piperazine-N′-[2-ethanesulfonic acid]), 5 EGTA (ethylene glycol-bis[β-aminoethyl ether]-N,N,N′,N′-tetraacetic acid), 1 MgCl2, 0.5 CaCl2, pH 7.2. Whole-cell capacitance and series resistance were recorded and adequately compensated using the available circuitry of the amplifier. Current responses were filtered at 1 kHz with an 8-pole Bessel filter (Cygnus Technologies, Delaware Water Gap, Pa.), digitized at 3 kHz, and stored on a Macintosh PowerPC-G3 computer using an ITC-16 interface (Instrutech, Great Neck, N.Y.) under control of the data acquisition and analysis program Synapse (Synergy Research, Gaithersburg, Md.). […] Rapid switching between inputs was achieved using a set of upstream solenoid valves (Lee Co., Westbrook, Conn.) under computer control; the solution exchange rate was ˜5 ms as measured from liquid junction currents.
Transfected HEK293 cells expressing various receptor subunit cDNAs were examined by whole-cell patch-clamp recording with fast perfusion of agonist and drug solutions. […] In FIG. 1A, open bars depict the timing of ACh application; filled bars depict the timing of co-application of 20 μM IBO or 20 μM 18MC; and inhibition was measured relative to control at the end of the drug application (indicated by arrows). […]

T1 sequence (P09483 31-630): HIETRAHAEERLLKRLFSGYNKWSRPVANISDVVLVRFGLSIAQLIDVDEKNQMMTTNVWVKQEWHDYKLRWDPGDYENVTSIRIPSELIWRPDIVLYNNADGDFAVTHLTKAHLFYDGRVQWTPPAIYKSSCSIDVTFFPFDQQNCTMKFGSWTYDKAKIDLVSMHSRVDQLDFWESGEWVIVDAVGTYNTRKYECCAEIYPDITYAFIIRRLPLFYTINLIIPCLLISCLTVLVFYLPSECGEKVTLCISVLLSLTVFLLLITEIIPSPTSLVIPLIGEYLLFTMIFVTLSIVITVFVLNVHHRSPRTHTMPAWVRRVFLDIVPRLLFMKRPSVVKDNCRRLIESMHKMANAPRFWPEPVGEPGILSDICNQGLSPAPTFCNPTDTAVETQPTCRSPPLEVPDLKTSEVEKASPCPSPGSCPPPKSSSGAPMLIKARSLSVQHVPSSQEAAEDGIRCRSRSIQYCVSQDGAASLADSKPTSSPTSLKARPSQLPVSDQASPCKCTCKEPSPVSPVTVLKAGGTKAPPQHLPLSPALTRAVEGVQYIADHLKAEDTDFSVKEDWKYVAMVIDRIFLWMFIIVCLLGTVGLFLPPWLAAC
T1 sequence (P12390 25-500): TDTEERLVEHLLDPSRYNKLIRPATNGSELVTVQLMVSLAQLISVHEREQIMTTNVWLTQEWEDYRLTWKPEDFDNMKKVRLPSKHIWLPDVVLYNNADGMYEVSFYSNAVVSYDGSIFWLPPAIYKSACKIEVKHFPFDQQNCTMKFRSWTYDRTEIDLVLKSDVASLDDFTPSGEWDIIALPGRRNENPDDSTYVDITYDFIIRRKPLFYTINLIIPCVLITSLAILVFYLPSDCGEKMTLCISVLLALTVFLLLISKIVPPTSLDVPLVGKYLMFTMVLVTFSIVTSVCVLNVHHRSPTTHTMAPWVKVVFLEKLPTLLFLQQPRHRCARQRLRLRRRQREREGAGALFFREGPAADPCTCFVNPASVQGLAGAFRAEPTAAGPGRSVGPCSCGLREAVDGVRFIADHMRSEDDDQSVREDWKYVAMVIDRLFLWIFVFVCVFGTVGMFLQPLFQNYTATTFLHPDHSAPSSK
T6 sequence (P04757 26-499): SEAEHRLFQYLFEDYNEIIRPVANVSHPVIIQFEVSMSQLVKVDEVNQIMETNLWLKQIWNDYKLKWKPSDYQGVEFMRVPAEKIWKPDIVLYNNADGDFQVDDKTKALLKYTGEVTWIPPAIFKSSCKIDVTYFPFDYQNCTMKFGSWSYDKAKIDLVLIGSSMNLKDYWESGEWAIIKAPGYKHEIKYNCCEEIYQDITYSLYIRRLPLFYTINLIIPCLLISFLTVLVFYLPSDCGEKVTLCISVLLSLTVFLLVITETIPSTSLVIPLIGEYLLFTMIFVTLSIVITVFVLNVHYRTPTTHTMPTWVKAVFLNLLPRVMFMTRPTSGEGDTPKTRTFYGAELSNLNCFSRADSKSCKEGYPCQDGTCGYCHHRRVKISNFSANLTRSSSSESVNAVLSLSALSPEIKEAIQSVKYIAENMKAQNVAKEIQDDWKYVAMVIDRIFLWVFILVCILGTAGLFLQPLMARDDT
T6 sequence (P12392 21-495): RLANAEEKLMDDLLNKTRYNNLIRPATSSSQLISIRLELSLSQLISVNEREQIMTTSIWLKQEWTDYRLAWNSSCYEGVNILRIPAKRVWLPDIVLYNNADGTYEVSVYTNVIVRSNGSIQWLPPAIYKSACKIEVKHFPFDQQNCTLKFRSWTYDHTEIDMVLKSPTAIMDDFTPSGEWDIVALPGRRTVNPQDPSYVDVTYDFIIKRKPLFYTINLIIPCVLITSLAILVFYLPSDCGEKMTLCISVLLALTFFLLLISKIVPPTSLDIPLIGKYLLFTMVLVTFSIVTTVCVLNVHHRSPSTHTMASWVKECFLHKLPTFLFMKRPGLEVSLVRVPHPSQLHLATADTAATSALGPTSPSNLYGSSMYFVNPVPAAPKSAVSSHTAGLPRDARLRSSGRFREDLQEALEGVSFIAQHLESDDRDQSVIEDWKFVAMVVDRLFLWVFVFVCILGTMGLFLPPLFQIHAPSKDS
T3 sequence (Q00960 27-1482, other chains not shown): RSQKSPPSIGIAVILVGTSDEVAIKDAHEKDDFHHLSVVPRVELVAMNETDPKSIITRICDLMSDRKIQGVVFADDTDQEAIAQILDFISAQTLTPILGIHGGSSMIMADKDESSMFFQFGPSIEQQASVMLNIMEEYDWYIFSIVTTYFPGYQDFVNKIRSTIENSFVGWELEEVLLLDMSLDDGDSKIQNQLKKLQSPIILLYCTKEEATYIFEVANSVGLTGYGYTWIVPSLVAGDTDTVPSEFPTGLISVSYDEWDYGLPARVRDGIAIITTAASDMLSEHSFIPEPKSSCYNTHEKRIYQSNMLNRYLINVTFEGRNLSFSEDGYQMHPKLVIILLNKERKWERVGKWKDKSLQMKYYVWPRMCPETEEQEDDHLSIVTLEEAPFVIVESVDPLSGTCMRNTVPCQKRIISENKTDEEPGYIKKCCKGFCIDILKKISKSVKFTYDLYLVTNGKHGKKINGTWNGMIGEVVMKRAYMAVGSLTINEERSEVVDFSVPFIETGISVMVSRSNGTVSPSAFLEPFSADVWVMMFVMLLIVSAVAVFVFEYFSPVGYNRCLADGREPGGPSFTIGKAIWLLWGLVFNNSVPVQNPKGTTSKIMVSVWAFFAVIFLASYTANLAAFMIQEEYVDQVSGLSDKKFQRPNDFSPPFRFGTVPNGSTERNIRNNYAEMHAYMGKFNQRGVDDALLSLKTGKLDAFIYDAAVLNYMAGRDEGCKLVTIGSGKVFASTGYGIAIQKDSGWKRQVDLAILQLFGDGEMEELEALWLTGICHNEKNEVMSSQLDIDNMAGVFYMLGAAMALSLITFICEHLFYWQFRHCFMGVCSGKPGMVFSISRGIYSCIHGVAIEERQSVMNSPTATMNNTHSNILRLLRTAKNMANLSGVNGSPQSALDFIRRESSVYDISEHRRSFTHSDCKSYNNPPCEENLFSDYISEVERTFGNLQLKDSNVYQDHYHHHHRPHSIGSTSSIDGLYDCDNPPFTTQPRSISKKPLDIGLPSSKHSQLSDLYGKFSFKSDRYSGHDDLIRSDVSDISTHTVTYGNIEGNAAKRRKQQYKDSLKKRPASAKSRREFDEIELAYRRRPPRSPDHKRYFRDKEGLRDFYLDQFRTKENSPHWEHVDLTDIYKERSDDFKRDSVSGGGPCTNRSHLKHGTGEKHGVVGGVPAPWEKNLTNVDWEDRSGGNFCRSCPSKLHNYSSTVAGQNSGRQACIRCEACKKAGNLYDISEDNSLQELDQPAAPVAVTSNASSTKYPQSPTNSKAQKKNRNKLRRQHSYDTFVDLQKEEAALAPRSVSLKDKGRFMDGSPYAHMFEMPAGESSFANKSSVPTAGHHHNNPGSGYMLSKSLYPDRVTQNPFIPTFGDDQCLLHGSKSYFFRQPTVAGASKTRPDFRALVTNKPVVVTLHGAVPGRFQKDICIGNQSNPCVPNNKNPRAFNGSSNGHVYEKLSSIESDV
T4 sequence (Q00959 20-1464 limits assumed, other chains not shown): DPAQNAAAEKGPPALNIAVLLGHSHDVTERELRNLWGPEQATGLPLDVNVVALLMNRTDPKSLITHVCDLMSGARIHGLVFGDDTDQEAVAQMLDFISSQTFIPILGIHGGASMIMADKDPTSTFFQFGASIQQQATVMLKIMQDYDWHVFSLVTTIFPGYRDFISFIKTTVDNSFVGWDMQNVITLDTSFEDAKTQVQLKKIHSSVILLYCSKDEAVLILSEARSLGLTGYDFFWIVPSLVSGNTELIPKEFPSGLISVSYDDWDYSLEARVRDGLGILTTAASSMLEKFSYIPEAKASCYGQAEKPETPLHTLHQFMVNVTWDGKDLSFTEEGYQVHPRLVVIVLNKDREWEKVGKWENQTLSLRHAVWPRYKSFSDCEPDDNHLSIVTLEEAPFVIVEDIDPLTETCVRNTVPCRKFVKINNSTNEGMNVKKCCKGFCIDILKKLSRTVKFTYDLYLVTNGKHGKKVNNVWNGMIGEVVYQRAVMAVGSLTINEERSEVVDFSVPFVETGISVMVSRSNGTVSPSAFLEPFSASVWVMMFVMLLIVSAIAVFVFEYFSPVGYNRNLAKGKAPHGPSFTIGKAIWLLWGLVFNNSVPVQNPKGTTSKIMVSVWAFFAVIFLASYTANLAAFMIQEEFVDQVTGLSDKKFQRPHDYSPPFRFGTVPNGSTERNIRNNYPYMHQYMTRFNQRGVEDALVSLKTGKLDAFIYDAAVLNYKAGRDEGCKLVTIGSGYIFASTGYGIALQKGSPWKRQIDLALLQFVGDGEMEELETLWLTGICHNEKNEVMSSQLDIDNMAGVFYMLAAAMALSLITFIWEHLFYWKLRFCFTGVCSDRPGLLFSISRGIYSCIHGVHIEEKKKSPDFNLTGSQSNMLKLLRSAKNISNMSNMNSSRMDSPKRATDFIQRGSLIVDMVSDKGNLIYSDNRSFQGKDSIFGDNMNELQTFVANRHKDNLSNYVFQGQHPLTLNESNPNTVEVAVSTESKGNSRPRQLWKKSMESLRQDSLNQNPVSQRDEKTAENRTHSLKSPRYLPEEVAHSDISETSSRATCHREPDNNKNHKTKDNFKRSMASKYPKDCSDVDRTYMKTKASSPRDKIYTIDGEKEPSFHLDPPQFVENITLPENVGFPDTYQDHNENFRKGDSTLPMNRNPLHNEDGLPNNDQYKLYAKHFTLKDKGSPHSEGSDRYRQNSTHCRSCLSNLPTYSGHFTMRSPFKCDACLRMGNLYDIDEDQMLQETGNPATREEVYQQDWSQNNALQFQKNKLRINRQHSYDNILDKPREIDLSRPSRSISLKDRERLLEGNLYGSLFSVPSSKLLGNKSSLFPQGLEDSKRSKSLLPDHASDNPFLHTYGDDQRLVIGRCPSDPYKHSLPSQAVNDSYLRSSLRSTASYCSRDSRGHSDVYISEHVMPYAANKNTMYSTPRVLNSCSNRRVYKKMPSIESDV
T2 sequence (P09483 31-630): as the sequence (P09483 31-630) above
T2 sequence (P12390 25-500): as the sequence (P12390 25-500) above

## COCC[C@H]1CC2CN3CCc4c([nH]c5ccccc45)[C@](C(=O)OC)(C2)[C@H]13 [18-methoxycoronaridine]
α3β4 nACh receptors [1]; 5 μM drug with 300 μM ACh
  inhibition of ACh-evoked response: no apparent inhibition
α3β4 nACh receptors [1]; 20 μM drug alone, -70 mV
  response to drug applied alone (agonist activity): did not produce any response
α3β4 nACh receptors [1]; 20 μM drug with 300 μM ACh, FIG. 2
  inhibition of ACh-evoked response: 8 ±4%
nACh receptors
  IC50: > 20 µM
NR1/2B receptors; 20 μM drug alone
  response to drug applied alone (agonist activity): did not produce any response
NR1/2B receptors; concentrations up to 20 μM, N=5, FIG. 3B
  inhibition of agonist-evoked response: failed to inhibit
NR1/2A receptors; 20 μM drug alone
  response to drug applied alone (agonist activity): did not produce any response
NR1/2A receptors; concentrations up to 20 μM, N=3, FIG. 3A
  inhibition of agonist-evoked response: failed to inhibit
5-HT3A receptors; 20 μM drug alone
  response to drug applied alone (agonist activity): did not produce any response
5-HT3A receptors; 20 μM drug with 100 μM serotonin, FIG. 4
  inhibition of serotonin-evoked responses: 50±3%
5-HT3A receptors; approximate, from 20 μM data, read-out: IC50 at 5-HT3 receptors
  IC50: ~20 µM
α3β4 nACh receptors [2]; 20 μM drug alone, -70 mV
  response to drug applied alone (agonist activity): did not produce any response
α3β4 nACh receptors [2]; 20 μM drug with 1 mM ACh, N=15, FIG. 1A
  inhibition of ACh-evoked responses on co-application: nearly abolished
